According to BindingDB's records for doi:10.1021/np500757w (University of California San Diego, 2015):

Target: Endoplasmic reticulum chaperone BiP (Homo sapiens, UniProt P11021)
Test: Inhibition of 2-deoxyglucose-induced GRP78 (unknown origin) expression transfected in human HT1080 cells by luciferase reporter gene assay

Endoplasmic reticulum chaperone BiP, sequence (P11021 whole entry): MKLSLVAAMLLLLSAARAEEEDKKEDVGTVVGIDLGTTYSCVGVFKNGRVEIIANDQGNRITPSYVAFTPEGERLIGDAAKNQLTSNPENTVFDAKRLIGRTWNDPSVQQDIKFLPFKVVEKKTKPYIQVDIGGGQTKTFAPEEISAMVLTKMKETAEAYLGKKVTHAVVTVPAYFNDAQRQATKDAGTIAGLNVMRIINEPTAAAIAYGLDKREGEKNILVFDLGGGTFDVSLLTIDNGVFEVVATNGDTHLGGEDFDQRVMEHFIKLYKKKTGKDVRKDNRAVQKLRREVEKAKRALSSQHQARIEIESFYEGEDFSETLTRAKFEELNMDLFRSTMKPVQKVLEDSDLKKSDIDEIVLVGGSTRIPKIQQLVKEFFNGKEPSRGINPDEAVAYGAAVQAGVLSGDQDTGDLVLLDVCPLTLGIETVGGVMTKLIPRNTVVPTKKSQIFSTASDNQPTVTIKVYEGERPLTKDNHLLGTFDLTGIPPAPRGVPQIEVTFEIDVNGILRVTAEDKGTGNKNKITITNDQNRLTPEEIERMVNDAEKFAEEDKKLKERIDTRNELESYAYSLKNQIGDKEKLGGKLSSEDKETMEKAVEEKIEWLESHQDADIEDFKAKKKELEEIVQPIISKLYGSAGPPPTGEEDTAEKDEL

IC50: 0.3 µM
SMILES: CC/C1=C/[C@H](CO)C[C@@H](C)[C@H](O[C@H]2C[C@H](O)[C@H](O[C@@H]3O[C@@H](C)[C@H](O[C@H]4C[C@H](O)[C@H](O)[C@@H](C)O4)[C@@H](OC)[C@H]3O)[C@@H](C)O2)[C@H](C)CCC[C@]2(C)C=C(C)[C@H](C)C[C@]23OC(=O)C(=C3O)C(=O)[C@@]2(CC)[C@H]3[C@H](C=C(C)[C@@H]12)[C@@H](O)CC(=O)[C@@H]3C
